According to patent US12721838B2 (Henry Ford Health System, priority 2020, dated 2026):

Target: T1, Trib2-Luciferase (Luc-Trib2) fusion (Homo sapiens, UniProt Q92519)
T1 sequence (Q92519 with tags, fused parts or gaps): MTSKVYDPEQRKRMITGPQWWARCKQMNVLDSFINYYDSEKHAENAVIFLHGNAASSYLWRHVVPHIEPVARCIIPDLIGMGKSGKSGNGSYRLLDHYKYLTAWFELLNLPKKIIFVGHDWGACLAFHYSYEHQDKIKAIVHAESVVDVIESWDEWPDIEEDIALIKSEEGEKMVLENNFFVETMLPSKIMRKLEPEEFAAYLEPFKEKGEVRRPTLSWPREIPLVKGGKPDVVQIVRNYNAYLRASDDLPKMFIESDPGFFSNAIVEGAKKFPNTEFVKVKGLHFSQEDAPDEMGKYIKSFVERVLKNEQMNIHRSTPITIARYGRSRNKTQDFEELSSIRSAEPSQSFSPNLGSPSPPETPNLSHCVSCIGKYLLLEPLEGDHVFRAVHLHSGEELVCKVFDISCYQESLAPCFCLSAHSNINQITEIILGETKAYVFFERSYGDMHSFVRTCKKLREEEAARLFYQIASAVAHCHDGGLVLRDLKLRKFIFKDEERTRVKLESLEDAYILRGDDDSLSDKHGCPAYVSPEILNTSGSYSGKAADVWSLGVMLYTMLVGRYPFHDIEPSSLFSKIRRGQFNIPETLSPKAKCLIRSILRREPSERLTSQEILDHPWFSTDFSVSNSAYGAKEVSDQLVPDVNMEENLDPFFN
Assay: cell-based
Settings: HFF, read-out: Luciferase activity (%)

Structure (SMILES)	activity at 10 µM [%]
CC[C@H]1OC(=O)[C@H](C)[C@@H](O[C@H]2C[C@@](C)(OC)[C@@H](O)[C@H](C)O2)[C@H](C)[C@@H](O[C@@H]2O[C@H](C)C[C@H](N(C)C)[C@H]2O)[C@](C)(O)C[C@@H](C)[C@@H]2N[C@@H](COCCOC)O[C@H]([C@H]2C)[C@]1(C)O [Dirithromycin]	100
C[C@]12C=CC(=O)C=C1CC[C@H]1[C@@H]3C[C@@H](O)[C@](O)(C(=O)CO)[C@@]3(C)C[C@H](O)[C@@]12F [Triamcinolone]	72
COc1cccc2c1C(=O)c1c(O)c3c(c(O)c1C2=O)C[C@@](O)(C(=O)CO)C[C@@H]3O[C@H]1C[C@H](N)[C@H](O)[C@H](C)O1 [Doxorubicin]	28
Cc1cccn2c(=O)c(-c3nnn[nH]3)cnc12 [Pemirolast]	88
CCc1c2c(nc3ccc(OC(=O)N4CCC(N5CCCCC5)CC4)cc13)-c1cc3c(c(=O)n1C2)COC(=O)[C@]3(O)CC [Irinotecan]	85
CCOC(=O)N[C@@H]1CC[C@@H]2[C@@H](C1)C[C@H]1C(=O)O[C@H](C)[C@H]1[C@H]2/C=C/c1ccc(-c2cccc(F)c2)cn1 [Vorapaxar]	59
NC(N)=Nc1nc(CSCCC(N)=NS(N)(=O)=O)cs1 [Famotidine]	100
CC(C)(C)c1nc(-c2cccc(NS(=O)(=O)c3c(F)cccc3F)c2F)c(-c2ccnc(N)n2)s1 [Dabrafenib]	72
O=C1CN2Cc3c(ccc(Cl)c3Cl)N=C2N1 [Anagrelide]	92
CN1CCN2c3ccccc3Cc3ccccc3C2C1 (stereo not shown) [Mianserin]	55
CN1C(=O)COc2c(C(=O)NC3CN4CCC3CC4)cc(Cl)cc21 (stereo not shown) [Azasetron]	100
CC(C)OC(=O)C(C)(C)Oc1ccc(C(=O)c2ccc(Cl)cc2)cc1 [Fenofibrate]	92
O=C(O)c1cc(=O)c2c(OCC(O)COc3cccc4oc(C(=O)O)cc(=O)c34)cccc2o1 [Cromolyn]	93
CN(C)CCCN1c2ccccc2CCc2ccccc21 [Imipramine]	86
C[C@H]1c2cccc(O)c2C(=O)C2=C(O)[C@]3(O)C(=O)C(C(N)=O)=C(O)[C@@H](N(C)C)[C@@H]3[C@@H](O)[C@@H]21 [Doxycycline]	91
CC[C@@H](CO)NCCN[C@@H](CC)CO [Ethambutol]	98
COc1cc([C@@H]2c3cc4c(cc3[C@@H](O[C@@H]3O[C@@H]5CO[C@@H](c6cccs6)O[C@H]5[C@H](O)[C@H]3O)[C@H]3COC(=O)[C@H]23)OCO4)cc(OC)c1O [Teniposide]	70
O=C1Nc2ccc(Cl)cc2[C@@](C#CC2CC2)(C(F)(F)F)O1 [Efavirenz]	89
C=C[C@]1(C)C[C@@H](OC(=O)CSC(C)(C)CNC(=O)[C@H](N)C(C)C)[C@]2(C)[C@H](C)CC[C@]3(CCC(=O)[C@H]32)[C@@H](C)[C@@H]1O [Valnemulin]	83
CC(C)(Oc1ccc(Cl)cc1)C(=O)O [Clofibric acid]	87
Cc1cn(-c2cc(NC(=O)c3ccc(C)c(Nc4nccc(-c5cccnc5)n4)c3)cc(C(F)(F)F)c2)cn1 [Nilotinib]	99
C#Cc1cccc(Nc2ncnc3cc(OCCOC)c(OCCOC)cc23)c1 [Erlotinib]	50
CS(=O)(=O)OCCCCOS(C)(=O)=O [Busulfan]	100
O=C(Nc1ccc([N+](=O)[O-])cc1Cl)c1cc(Cl)ccc1O [Niclosamide]	62

Structure (SMILES)	activity at 10 µM [%]
Cc1cn([C@@H]2C[C@@H](O)[C@H](CO)O2)c(=O)[nH]c1=O [Telbivudine]	91
CC1(C)S[C@@H]2[C@H](NC(=O)[C@H](C(=O)O)c3ccsc3)C(=O)N2[C@H]1C(=O)O [Ticarcillin]	87
COc1cc(N)c(Cl)cc1C(=O)NC1CCN(Cc2ccccc2)CC1 [Clebopride]	100
CCCOc1ccc(S(=O)(=O)NCCC2CCCN2C)cc1-c1nc2c(CCC)nn(C)c2c(=O)[nH]1 (stereo not shown) [Udenafil]	100
Cc1cc(-c2ccccc2)nnc1NCCN1CCOCC1 [Minaprine]	79
CC(=O)N1C[C@H](O)C[C@H]1C(=O)O [Oxaceprol]	100
C=CCc1ccccc1OCC(O)CNC(C)C (stereo not shown) [Alprenolol]	91
CC1=C(C(=O)OCCN(Cc2ccccc2)c2ccccc2)C(c2cccc([N+](=O)[O-])c2)C(P2(=O)OCC(C)(C)CO2)=C(C)N1 (stereo not shown) [Efonidipine]	98
OCCN(CCO)c1nc(N2CCCCC2)c2nc(N(CCO)CCO)nc(N3CCCCC3)c2n1 [Dipyridamole]	98
CCC(=O)NCC[C@@H]1CCc2ccc3c(c21)CCO3 [Ramelteon]	100
CC(=O)OCC(=O)[C@@]12OC(C)(C)O[C@@H]1C[C@H]1[C@@H]3C[C@H](F)C4=CC(=O)C=C[C@]4(C)[C@@]3(F)[C@@H](O)C[C@@]12C [Fluocinonide]	78
CCN(CC)C(=O)C1(c2ccccc2)CC1CN (stereo not shown) [Milnacipran]	85
CN1[C@@H]2CC[C@H]1C[C@@H](OC(=O)C(CO)c1ccccc1)C2 (stereo partly shown) [Atropine]	67
CC1CCc2c(N3CCC(O)CC3)c(F)cc3c(=O)c(C(=O)O)cn1c23 (stereo not shown) [Nadifloxacin]	96
O=C(O)CCNC(=O)c1ccccc1 [Betamipron]	87
CC[C@H]1OC(=O)[C@H](C)[C@@H](O[C@H]2C[C@@](C)(OC)[C@@H](O)[C@H](C)O2)[C@H](C)[C@@H](O[C@@H]2O[C@H](C)C[C@H](N(C)C)[C@H]2O)[C@](C)(OC)C[C@@H](C)C(=O)[C@H](C)[C@@H](O)[C@]1(C)O [Clarithromycin]	97
[H]/N=C(/N)NS(=O)(=O)c1ccc(N)cc1 [Sulfaguanidine]	84
CN(C)C(=O)Oc1ccc[n+](C)c1 [Pyridostigmine]	76
CC(C)C(=O)c1c(C(C)C)nn2ccccc12 [Ibudilast]	85
CC(C)N1CCN(c2ccc(OCC3COC(Cn4cncn4)(c4ccc(Cl)cc4Cl)O3)cc2)CC1 (stereo not shown) [Terconazole]	82
CCCC1O[C@@H]2C[C@H]3[C@@H]4CCC5=CC(=O)C=C[C@]5(C)[C@H]4[C@@H](O)C[C@]3(C)[C@]2(C(=O)CO)O1 (stereo partly shown) [Budesonide]	83
CC[C@]12CCCN3CCc4c(n(c5ccccc45)[C@@](O)(C(=O)OC)C1)[C@@H]32 [Vincamine]	80
C[N+](C)(C)C[C@H](O)CC(=O)[O-] [Levocarnitine]	84
COC(=O)C1=C(C#N)NC(C)=C(C(=O)OC(C)C)C1c1cccc([N+](=O)[O-])c1 (stereo not shown) [Nilvadipine]	89

Structure (SMILES)	activity at 10 µM [%]
Fc1ccc([C@@H]2CCNC[C@H]2COc2ccc3c(c2)OCO3)cc1 [Paroxetine]	93
Cc1c(OCC(F)(F)F)ccnc1C[S+]([O-])c1nc2ccccc2[nH]1 (stereo not shown) [Lansoprazole]	78
COc1ccc(CN2CCNCC2)c(OC)c1OC [Trimetazidine]	100
CCCOc1ccc(C(=O)OCCN(CC)CC)cc1N [Proparacaine]	88
OC1(c2ccc(Cl)c(C(F)(F)F)c2)CCN(CCCC(c2ccc(F)cc2)c2ccc(F)cc2)CC1 [Penfluridol]	71
CN1C[C@@H]2C[C@H]1CN2c1cc2c(cc1F)c(=O)c(C(=O)O)cn2C1CC1 [Danofloxacin]	81
O=C(O)CCCc1ccc(N(CCCl)CCCl)cc1 [Chlorambucil]	96
COc1ccccc1OCC(O)CN1CCN(CC(=O)Nc2c(C)cccc2C)CC1 (stereo not shown) [Ranolazine]	100
CC1(C)CCC(CN2CCN(c3ccc(C(=O)NS(=O)(=O)c4ccc(NCC5CCOCC5)c([N+](=O)[O-])c4)c(Oc4cnc5[nH]ccc5c4)c3)CC2)=C(c2ccc(Cl)cc2)C1 [Venetoclax]	184
OB1OCc2cc(F)ccc21 [Tavaborole]	75
CC1(C)CCC(C)(C)c2cc(NC(=O)c3ccc(C(=O)O)cc3)ccc21 [Tamibarotene]	100
C[C@@](Cc1ccc(O)c(O)c1)(NN)C(=O)O [Carbidopa]	92
Cc1cnc(NC(=O)C2=C(O)c3ccccc3S(=O)(=O)N2C)s1 [Meloxicam]	100
Nc1nc(N)c2nc(-c3ccccc3)c(N)nc2n1 [Triamterene]	100
CN(C)c1cc(NC(=O)CNC(C)(C)C)c(O)c2c1C[C@H]1C[C@H]3[C@H](N(C)C)C(O)=C(C(N)=O)C(=O)[C@@]3(O)C(O)=C1C2=O [Tigecycline]	63
Cc1cccc(C)c1OCC(C)N (stereo not shown) [Mexiletine]	86
Cc1nnc(NS(=O)(=O)c2ccc(N)cc2)s1 [Sulfamethizole]	94
CCOC(=O)c1cncn1[C@H](C)c1ccccc1 [Etomidate]	100
CCCCCCCCc1ccc(CCC(N)(CO)CO)cc1 [Fingolimod]	80
Cc1ccc(C(=O)Nc2ccc(CN3CCN(C)CC3)c(C(F)(F)F)c2)cc1C#Cc1cnc2cccnn12 [Ponatinib]	42
N=C(N)NC(=O)Cc1c(Cl)cccc1Cl [Guanfacine]	100
c1cc(CN2CCCNCCNCCCNCC2)ccc1CN1CCCNCCNCCCNCC1 [Plerixafor]	93
